From patent US20260265177A1, “BICYCLIC COMPOUNDS AS INACTIVATORS OF OAT AND GABA-AT” (Northwestern University, priority 2023, published 2026)

Columns and labels:
Format in all cases: biochemical
[1] = target: T1, hOAT (Homo sapiens, UniProt P04181); assay: Turnover number and partition ratio by titrating hOAT with varying equivalents of inactivator
T1 sequence (P04181 36-439 limits assumed): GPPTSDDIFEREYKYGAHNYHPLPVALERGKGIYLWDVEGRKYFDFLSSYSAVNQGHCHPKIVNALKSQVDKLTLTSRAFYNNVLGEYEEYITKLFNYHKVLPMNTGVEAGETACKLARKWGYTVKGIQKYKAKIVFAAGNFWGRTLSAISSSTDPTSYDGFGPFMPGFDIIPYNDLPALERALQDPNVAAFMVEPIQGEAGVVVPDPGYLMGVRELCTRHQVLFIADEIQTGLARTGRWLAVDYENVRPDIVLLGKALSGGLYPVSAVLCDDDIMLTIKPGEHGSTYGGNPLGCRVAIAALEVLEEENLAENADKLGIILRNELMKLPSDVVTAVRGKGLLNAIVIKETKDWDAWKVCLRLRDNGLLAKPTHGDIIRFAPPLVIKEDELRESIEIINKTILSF
Description: The turnover number and partition ratio of 6 were determined by titrating a known amount of hOAT with varying equivalents of inactivator (FIG. 12). The linear relationship of the remaining enzymatic activity was extrapolated to yield the number of equivalents of 6 required to inactivate the enzyme completely. From this we determined the turnover number of 6 to be 8.5 equivalent and the partition ratio to be 7.5. Based on our understanding of the mechanism, we believe that the turnover number may indicate that the second deprotonation is slow, which would allow the ketimine time to hydrolyze in a higher percentage than if the second deprotonation occurred rapidly.

[2] = target: T1, hOAT; assay: Dialysis of hOAT inactivated by compound; conditions: hOAT dialyzed at 5° C. for 72 hours
Description: Samples of hOAT that had been inactivated by varying equivalents of 6 were dialyzed at 5° C. for 72 hours. At 4-, 12-, 24-, 48-, and 72-hour time points, aliquots were taken and the activity of the hOAT was measured.

[3] = target: T1, hOAT; assay: Time-dependent inactivation of hOAT; conditions: enantiopure compound
[4] = system: GABA-AT; assay: Time-dependent inhibition of GABA-AT; conditions: conclusion statement
From the text: Time-dependent inhibition of both GABA-AT and OAT were explored with racemic 6 (FIGS. 4 and 5). […] Racemic Vince lactam was used for the aforementioned biological assays.

partition ratio [1]: 7.5 | turnover number ([1]; extrapolated from linear relationship of remaining enzymatic activity): 8.5 equivalent | enzymatic activity recovered after dialysis [2]: No enzymatic activity was recovered | kinact/KI [3]: 2.6 M⁻¹ s⁻¹
Compound: N[C@@H]1CC2C(F)(F)[C@@]2(C(=O)O)C1 (stereo partly drawn) [compound 6, (1S,3R)-3-amino-6,6-difluorobicyclo[3.1.0]hexane-1-carboxylic acid]
activity in GABA-AT [4]: modest activity
